Several values for one entry are separate records, joined by “and”; a condition that tells them apart may be missing. Equal entries are not always repeated. Where two headings read alike, the source gives them in different places.
Legend:
Type in all cases: in vitro ADME
[1] = biological target: T1, BCRP (Homo sapiens, UniProt Q9UNQ0); assay: Transporter inhibition, bidirectional permeability of prazosin in MDCKII-BCRP cells
T1 construct: host or cells: MDCKII
T1 sequence (Q9UNQ0 1-655): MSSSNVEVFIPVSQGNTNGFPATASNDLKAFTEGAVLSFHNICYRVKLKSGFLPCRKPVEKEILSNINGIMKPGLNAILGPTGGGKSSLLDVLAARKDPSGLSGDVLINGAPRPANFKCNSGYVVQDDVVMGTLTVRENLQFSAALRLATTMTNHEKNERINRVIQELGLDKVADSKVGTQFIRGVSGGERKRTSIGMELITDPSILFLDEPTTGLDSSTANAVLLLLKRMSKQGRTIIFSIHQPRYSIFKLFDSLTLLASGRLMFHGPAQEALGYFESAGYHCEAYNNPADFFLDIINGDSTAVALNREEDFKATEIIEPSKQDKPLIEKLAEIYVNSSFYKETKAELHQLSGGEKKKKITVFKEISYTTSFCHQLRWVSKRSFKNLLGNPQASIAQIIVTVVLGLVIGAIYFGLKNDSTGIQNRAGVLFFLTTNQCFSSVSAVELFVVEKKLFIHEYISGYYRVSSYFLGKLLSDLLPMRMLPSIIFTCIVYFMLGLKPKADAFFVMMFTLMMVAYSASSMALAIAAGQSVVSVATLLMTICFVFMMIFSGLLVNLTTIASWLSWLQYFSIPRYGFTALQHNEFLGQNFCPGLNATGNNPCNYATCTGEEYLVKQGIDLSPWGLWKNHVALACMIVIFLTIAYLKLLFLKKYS
Procedure: The test compound (FFA or nFFA) or the positive control substrate ([…], respectively) was added to the donor chamber. […] Cells were then washed, lysed with scintillation cocktail, and analyzed for the probe substrate with a MicroBeta scintillation counter (PerkinElmer, Hopkinton, MA). Transcellular transporter assay conditions are described in Supplemental Table 1. Calculation of IC50 values was based on bidirectional permeability of probe substrate with and without the inhibitor in MDCKII cells expressing BCRP and in Caco‐2 cells expressing P‐gp, and transporter‐dependent uptake of probe substrate in HEK293 cells expressing all other transporters (Supplemental Table 1).
The net flux for human epithelial colorectal adenocarcinoma cells (Caco-2; P-gp) and MDCKII-BCRP inhibition determination was calculated according to the equation: […]

[2] = Plasma protein binding, Rapid Equilibrium Device; settings: pooled rat or dog plasma, pH 7.4, range
Procedure: In vitro plasma protein binding was then determined by using the Rapid Equilibrium Device (RED) with a molecular weight cutoff of 8 kDa (Thermo Fisher Scientific, Inc., Waltham, MA). […] The internal standard was niflumic acid. […] Protein binding was determined by adding a 300‐μL aliquot of the test sample or the control sample to the sample chamber of the RED and adding a 500‐μL aliquot of PBS (pH 7.4) to the buffer chamber. The device unit was sealed and incubated at 37°C for 4 h with gentle shaking (~750 rpm). After dialysis, three aliquots of the test samples (50 μL) were collected from both sample and buffer chambers and were mixed with 50 μL of methanol as “donor samples” and “acceptor samples,” respectively. […] A detailed description of the LC‐MS/MS process can be found in the Supplemental Material. Supernatant fractions were analyzed by LC‐MS/MS using an Acquity Ultra Performance Liquid Chromatography system with ethylene bridged hybrid (BEH) C18 columns (2.1 × 50 mm, 1.7 µm; Waters Corporation; Milford, MA) coupled to an API4000 mass spectrometer (AB Sciex). […] Samples were prepared in triplicate and were dialyzed for 4 h. […] Protein binding was calculated as follows: Proteinbindingratio%=100‐Unboundratio%, where Unboundratio%=AcceptorSampleConcentration/DonorSampleConcentration.

[3] = biological target: T2, OCT2 (Homo sapiens, UniProt O15244); assay: Transporter inhibition, uptake of [14C]-metformin in HEK293 cells; settings: probe [14C]-metformin 10 μM
T2 construct: host or cells: HEK293
T2 sequence (O15244 1-555): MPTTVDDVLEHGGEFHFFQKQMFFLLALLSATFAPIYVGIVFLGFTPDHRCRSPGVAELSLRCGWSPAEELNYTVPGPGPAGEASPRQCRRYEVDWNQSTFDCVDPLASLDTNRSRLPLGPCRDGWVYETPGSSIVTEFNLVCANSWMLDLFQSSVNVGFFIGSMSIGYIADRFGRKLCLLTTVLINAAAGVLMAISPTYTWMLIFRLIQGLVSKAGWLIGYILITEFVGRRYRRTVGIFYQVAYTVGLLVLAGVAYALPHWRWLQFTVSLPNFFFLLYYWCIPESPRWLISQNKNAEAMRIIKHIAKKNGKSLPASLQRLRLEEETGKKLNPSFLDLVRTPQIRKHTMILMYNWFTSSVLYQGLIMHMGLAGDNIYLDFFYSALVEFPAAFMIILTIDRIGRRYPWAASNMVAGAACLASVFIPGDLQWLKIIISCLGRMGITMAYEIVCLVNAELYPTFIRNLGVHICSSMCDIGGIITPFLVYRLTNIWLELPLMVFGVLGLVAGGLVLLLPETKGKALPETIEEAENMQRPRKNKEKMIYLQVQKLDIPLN
From the text: Cells were then washed, lysed with scintillation cocktail, and analyzed for the probe substrate with a MicroBeta scintillation counter (PerkinElmer, Hopkinton, MA). Transcellular transporter assay conditions are described in Supplemental Table 1. Calculation of IC50 values was based on bidirectional permeability of probe substrate with and without the inhibitor in MDCKII cells expressing BCRP and in Caco‐2 cells expressing P‐gp, and transporter‐dependent uptake of probe substrate in HEK293 cells expressing all other transporters (Supplemental Table 1).
The transporter-specific uptake of the probe substrate in cells was determined by subtracting the accumulation in the control cells from the accumulation in the transporter-expressing cells.

SMILES	IC50 [1] [µM]	fraction unbound at 4 h [2]	IC50 ([1]; MDCKII, probe prazosin 1 µM, read-out: IC50) [µM]	IC50 [3]
CCNC(C)Cc1cccc(C(F)(F)F)c1 (racemic) [FFA, (RS)‐ethyl(α‐methyl‐3‐trifluoromethylphenethyl)amine, reference compound]	> 100	0.378 to 0.538	–	–
CC(N)Cc1cccc(C(F)(F)F)c1.Cl (stereo not shown) [nFFA, [1‐(3‐trifluoromethyl)phenyl]propan‐2‐amine hydrochloride]	–	–	> 50	5.21 µM and 5.2 µM
